Assay results from PubChem BioAssay (NCI).
Several values for one entry are separate records, joined by “and”; a condition that tells them apart may be missing. Equal values may be shown once.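 Values below derive from 48-hour exposures of cells grown in 96-well plates, with endpoints linearly interpolated between the two concentrations bracketing the appropriate inhibition level. GI50 is the concentration that inhibits growth by half. Definition used: TGI = concentration required for complete inhibition of growth.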

Experiments:
Experiment in all cases: NCI anticancer screen, dose series, 48 h
[1] = test system: ACHN renal
[2] = test system: MDA-MB-435
[3] = test system: RPMI-8226 leukemia
[4] = test system: COLO 205 colon
[5] = test system: A549 NSCLC
[6] = test system: MALME-3M melanoma
[7] = test system: SK-OV-3 ovarian
[8] = test system: NCI-H226 lung
[9] = test system: LOX IMVI melanoma
[10] = test system: PC-3 prostate

Structure (SMILES)	GI50 [1] [µM]	TGI [1]	GI50 [2]	TGI [2] [µM]	GI50 [3]	TGI [3]	GI50 [4]	TGI [4] [µM]	GI50 [5]	TGI [5]	GI50 [6] [µM]	TGI [6] [µM]	GI50 [7] [µM]	TGI [7] [µM]	GI50 [8] [µM]	TGI [8] [µM]	GI50 [9] [µM]	TGI [9] [µM]	GI50 [10]	TGI [10] [µM]
O=C(/C=C/c1ccccc1)c1c[nH]c2ccccc2c1=O	3.01	11.7 µM	3.17 µM	13.8	2.23 µM	7.62 µM	2.39 µM	4.68	2.35 µM	10.3 µM	8.81	27.1	2.53	6.82	4.81	17.3	2.88	12	5.63 µM	33.1
COc1cc(/C=N/Nc2ncnc3c2cnn3C(C)C)ccc1O	5.95	> 25 µM	7.66 µM	> 25	9.76 µM	> 17.8 µM	12.2 µM	> 25	9.92 µM	> 25 µM	15	> 25	10.1	> 25	9.27	> 25	3.79	> 13.7	5.07 µM	> 25
Cc1cc2cccnc2c2ncccc12	0.46	7.51 µM	2.15 µM	21.9	2.43 µM	9.07 µM	3.4 µM	11.5	0.949 µM	10.6 µM	2.17	7.21	0.756	8.42	1.33	8.81	0.674	8.6	1.57 µM	34.4
COc1ccc2c(c1)[C@]1(C[C@H]1c1ccc3c(/C=C/c4ccc(CN5C[C@@H](C)O[C@@H](C)C5)cc4)n[nH]c3c1)C(=O)N2	2.86	> 100 µM	3.75 µM	21.8	1.59 µM	> 100 µM	< 0.0209 µM	15.1	2.72 µM	> 55.4 µM	2.22	8.63	15.1	> 100	14.5	> 100	1.96	10.4	2.54 µM	> 100
C=CCn1c(=O)c2cnc(Nc3ccc(N4CCN(C)CC4)cc3)nc2n1-c1ccc2c(n1)[C@@](O)(CC)CC2	0.161	36.8 µM	0.226 µM	0.795	1.74 µM	14.5 µM	0.336 µM	2.57	2 µM	35.8 µM	0.576	12	0.284	4.48	1.94	15.2	1.02	9.89	2.24 µM	> 100
O=C1c2ccccc2NC(c2cc(Cl)cc(Cl)c2O)N1CCc1ccccn1 (stereo not given)		> 100 µM		> 100		> 100 µM		> 100		> 100 µM		> 100		> 100		> 100		> 100		> 100
COC(=O)CCC(C)[C@H]1CCC2C3C(C[C@H](OC(C)=O)[C@@]21C)[C@@]1(C)CCC2(C[C@H]1C[C@H]3OC(C)=O)OOC1(CCC(C)CC1)OO2 (stereo not given in full)		61.7 µM and > 100 µM	10.9 µM and 43.4 µM	> 100	1.28 µM and 3.15 µM	6.34 µM and 17.2 µM	8.13 µM and 48.8 µM	> 100	3.89 µM and 13.4 µM	25.4 µM and > 100 µM		> 100		> 100		> 100		> 100	2.98 µM and 7.43 µM	> 100
O=C(COc1ccc(/C=C2\Oc3ccccc3C2=O)cc1)Nc1nccs1	> 100	> 100 µM	8.47 µM	> 100	4.12 µM	> 100 µM	> 100 µM	> 100	63.9 µM	> 100 µM	> 100	> 100	> 100	> 100	60.3	> 100	0.371	> 100	38.1 µM	> 100
Oc1c(C(Nc2cccc3ccccc23)c2ccccc2)ccc2cccnc12 (stereo not given)	3.55	28.6 µM	5 µM	> 100	2.36 µM	> 100 µM	4.17 µM	17.7	2.95 µM	> 100 µM	5.17	25.7	5.9	> 100	2.17	8.06	1.92	13.7	5.16 µM	> 100
O=C(Cn1c(=O)c(-c2ccccc2)nc2ccccc21)c1ccc(Cl)cc1	38.6	> 100 µM	> 100 µM	> 100	57.8 µM	> 100 µM	> 100 µM	> 100	58.3 µM	> 100 µM	> 100	> 100	46.4	> 100	53.5	> 100	55	> 100	34.6 µM	> 100
